Columns and labels:
[1] = tested on: MPC-HIF2α tumor spheroids; assay: Spheroid regrowth assay with [177Lu]LuCl3 treatment; assay type: cell-based, mouse; conditions: 10 µM compound with 0.25 MBq [177Lu]LuCl3 for six days; for growth response (spheroid size): compared to controls; for 14-day regrowth probability: controls 50%
From the text: Radionuclide therapy is a fast-evolving treatment modality gaining more importance in treating cancer. For treatment of pheochromocytomas and paragangliomas, in particular, somatostatin type 2 receptor-targeted radionuclide therapy with [^177Lu]Lu-(Tyr^3)octreotate is currently investigated in clinical controlled trials (e.g., NCT04029428, NCT03923257, NCT03206060). To assess the additional effects of NO-COXIBs on the outcome of Lu-177 therapy, a simplified in vitro setup was used here, where MPC-HIF2α tumor spheroids were treated with 10 µM of the compounds and simultaneously 0.25 MBq of [^177Lu]LuCl3 for six days.
Genetically modified mouse pheochromocytoma (MPC) cells expressing a codon-optimized Epas1 gene (encoding HIF2α) were cultured as three-dimensional tumor spheroids as published elsewhere. External X-ray beam radiation treatment and [^177Lu]LuCl3 radionuclide treatment was performed as reported previously with some modifications. In brief, spheroids were irradiated with a 200 kV photon beam using a Maxishot X-ray system equipped with a Y.TU/320-D03 tube (YXLON, Hamburg, Germany), growth of spheroids (n = 6) with diameters between 300−400 µm was measured in response to one fixed radiation dose, 15 Gy for X-ray treatment, and 0.25 MBq/mL of [^177Lu]LuCl3 for radionuclide treatment corresponding to a cumulative dose of approximately 2 Gy delivered for 6 days. The applied radiation doses were selected based on the half-maximal spheroid control doses (SCD50) as previously determined for MPC HIF2α spheroids by us. Spheroids were considered as regrown at 100 µm increase in diameter compared to treatment start or at a diameter growth rate of 15 µm per day. Results are reported as spheroid regrowth probability (%).
Figure 5 Effects of NO-COXIBs on radiation treatments of MPC-HIF2α tumor spheroids. (A) Growth responses to X-ray treatment with a radiation dose of 15 Gy in combination with 10 µM NO-COXIBs added to the medium at indicated time points before or after irradiation. (B) Growth responses to [^177Lu]LuCl3 treatment with an initial activity concentration of 0.25 MBq/mL in combination with NO-COXIBs; log2 fold changes in diameter indicate the number of diameter doublings compared to treatment start; 14-day regrowth probability indicates the fraction of spheroids able to regrow within 14 days after treatment start; (black arrows) time point or duration of radiation treatment; (w/o) vehicle controls are shown as black lines; (Ce) celecoxib.

[2] = Fluorometric NO release assay (Griess assay); assay type: physicochemical; conditions: 24 h, 37 °C, relative to initial molar amount of compound; for thiol-dependent NO release: 2.5 mM cysteine; for spontaneous NO release: absence of cysteine
Procedure: The nitric oxide releasing properties of the nitroester-derivatives 5a–d, 5f, and 6a–d were evaluated using a fluorometric Griess assay in the presence and absence of cysteine to determine thiol-dependent and spontaneous release of nitric oxide (Figure 3).
Nitric oxide release of compounds within 24 h at 37 °C was measured using the fluorometric nitric oxide microplate assay kit ab65327 (Abcam, Cambridge, UK). For measurement of spontaneous release, 1.8 nmol of compounds were incubated in 75 µL Dulbecco’s PBS containing 0.05% v/v residual DMSO and 2.5 mM DTPA (pH = 7.1) for 24 h at 37 °C. Thiol-dependent release was measured accordingly in presence of 2.5 mM cysteine. Two series of nitrate standards were prepared (0.2−1 nmol) in 75 µL incubation buffer, in presence or absence of cysteine, respectively. According to the manufacturer’s instructions, all nitrate content in samples and standards was enzymatically converted into nitrite through incubation with nitrate reductase for 2 h at room temperature, and the resulting nitrite content (total nitric oxide) was determined through reaction with 2,3-diaminonaphthalene followed by measurement of fluorescence intensity at λex/em = 360/450 nm using a microplate reader. Nitrite content in samples was calculated from linear regression of standards and expressed as relative nitric oxide release (%) normalized to the initial molar amount of compound. NONOate served as positive control.
Figure 3 Spontaneous and thiol-dependent NO^• release from NO-COXIBs; measured using fluorometric Griess assay (n = 2); relative release indicates the percentage of soluble nitrogen species (nitrate + nitrite) detected in the incubation buffer after 24 h compared to the initial molar amount of compounds; NO^• release of NONOate (positive control) exceeded the maximum detection limit; data presented as mean ± range.

[3] = target: T1, purified ovine COX-1 (Ovis aries, UniProt P05979); assay: COX Fluorescent Inhibitor Screening Assay, COX-1; assay type: biochemical
T1 construct: purchased Cayman Chemical 700100
T1 sequence (P05979 25-600): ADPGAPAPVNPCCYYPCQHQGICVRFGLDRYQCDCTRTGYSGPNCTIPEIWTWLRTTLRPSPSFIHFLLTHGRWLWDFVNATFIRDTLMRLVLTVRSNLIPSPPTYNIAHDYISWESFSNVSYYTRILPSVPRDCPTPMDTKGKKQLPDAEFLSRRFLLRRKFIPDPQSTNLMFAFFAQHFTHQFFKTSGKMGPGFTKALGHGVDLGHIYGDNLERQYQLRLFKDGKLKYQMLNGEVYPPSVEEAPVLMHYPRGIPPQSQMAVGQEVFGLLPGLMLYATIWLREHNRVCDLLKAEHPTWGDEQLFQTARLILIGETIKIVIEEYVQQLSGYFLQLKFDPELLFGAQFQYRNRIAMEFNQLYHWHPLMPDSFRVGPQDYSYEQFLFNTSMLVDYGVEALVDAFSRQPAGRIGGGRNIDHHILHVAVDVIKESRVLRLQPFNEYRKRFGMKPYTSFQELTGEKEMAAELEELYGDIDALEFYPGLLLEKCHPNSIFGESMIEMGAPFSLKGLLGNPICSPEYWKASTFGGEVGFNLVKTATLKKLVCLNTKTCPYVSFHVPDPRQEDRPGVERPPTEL
Procedure: COX inhibition (Table 1) was evaluated in vitro using purified ovine COX-1 and recombinant human COX-2 enzyme in a commercially available “COX Fluorescent Inhibitor Screening Assay KIT” (item no. 700100, Cayman Chemical, Ann Arbor, MI, USA). Celecoxib served as a reference and inhibition data concerning 4a, 4e, 5a and 5e were previously reported by us and is herein discussed for comparison.
COX inhibition activity against ovine COX-1 and human COX-2 was determined using the fluorescence-based COX assay “COX Fluorescent Inhibitor Screening Assay Kit” (catalog number 700100; Cayman Chemical, Ann Arbor, MI, USA) according to the manufacturer’s instructions. Compounds 6a–d were screened at a concentration of 100 µM, all others were assayed in a concentration range of 0.1 nM to 100 μM in duplicate.

[4] = screened at a concentration of 100 µM

Row | Structure (SMILES) | thiol-dependent NO release [2] | spontaneous NO release [2] | IC50 ([3]; 0.1 nM to 100 µM in duplicate) | IC50 [3, 4] | growth response (spheroid size) [1] | 14-day regrowth probability [1]
1 | Cc1ccc(-c2c(Cl)c(CO[N+](=O)[O-])nn2-c2ccc(S(C)(=O)=O)cc2)cc1 [5c, {4-Chloro-1-[4-(methylsulfonyl)phenyl]-5-(p-tolyl)-1H-pyrazol-3-yl}methyl nitrate] | 17% | no detectable | > 100 µM |  | prevented spheroids from shrinking in size | 60–80%
2 | COc1ccc(-c2c(Cl)c(CO[N+](=O)[O-])nn2-c2ccc(S(C)(=O)=O)cc2)cc1 [5d, {4-Chloro-5-(4-methoxyphenyl)-1-[4-(methylsulfonyl)phenyl]-1H-pyrazol-3-yl}methyl nitrate] | 29–53% | 10–22% | > 100 µM |  | prevented spheroids from shrinking in size | 60–80%
3 | COc1ccc(-c2cc(CO[N+](=O)[O-])nn2-c2ccc(S(N)(=O)=O)cc2)cc1 [5f, [5-(4-Methoxyphenyl)-1-(4-sulfamoylphenyl)-1H-pyrazol-3-yl]methyl nitrate] | 29–53% | 10–22% | > 100 µM |  | prevented spheroids from shrinking in size | 60–80%

More lines, main results first:

Row | thiol-dependent NO release [2] | spontaneous NO release [2] | IC50 ([3]; 0.1 nM to 100 µM in duplicate) | IC50 [3, 4] | Structure (SMILES) | growth response (spheroid size) [1] | 14-day regrowth probability [1]
4 | 29–53% | 10–22% |  | > 100 µM | CCC(=O)NS(=O)(=O)c1ccc(-n2nc(CO[N+](=O)[O-])c(Cl)c2-c2ccc(C)cc2)cc1 [6a, {4-Chloro-1-[4-(N-propionylsulfamoyl)phenyl]-5-(p-tolyl)-1H-pyrazol-3-yl}methyl nitrate] | prevented spheroids from shrinking in size | 
5 | 56% | no detectable |  | ~100 µM | CCC(=O)NS(=O)(=O)c1ccc(-n2nc(CO[N+](=O)[O-])c(Cl)c2-c2ccc(OC)cc2)cc1 [6b, {4-Chloro-5-(4-methoxyphenyl)-1-[4-(N-propionylsulfamoyl)phenyl]-1H-pyrazol-3-yl}methyl nitrate] |  | 100%
6 | 40% | 26% |  | > 100 µM | CCC(=O)NS(=O)(=O)c1ccc(-n2nc(CO[N+](=O)[O-])cc2-c2ccc(C)cc2)cc1 [6c, {1-[4-(N-Propionylsulfamoyl)phenyl]-5-(p-tolyl)-1H-pyrazol-3-yl}methyl nitrate] | prevented spheroids from shrinking in size | 40%
7 | 65% | 40% |  | > 100 µM | CCC(=O)NS(=O)(=O)c1ccc(-n2nc(CO[N+](=O)[O-])cc2-c2ccc(OC)cc2)cc1 [6d, {5-(4-Methoxyphenyl)-1-[4-(N-propionylsulfamoyl)phenyl]-1H-pyrazol-3-yl}methyl nitrate] | prevented spheroids from shrinking in size | 100%

Source: paper PMC9573605, “Exploring Nitric Oxide (NO)-Releasing Celecoxib Derivatives as Modulators of Radioresponse in Pheochromocytoma Cells” (Molecules, 2022)
